We go through two compounds from patent US20140193802A1, “IDENTIFICATION OF AN ALTERED THERAPEUTIC SUSCEPTIBILITY TO ANTI-HCMV COMPOUNDS AND OF A RESISTANCE AGAINST ANTI-HCMV COMPOUNDS” (priority 2012, published 2014).

Experiment in all cases: CPE-RA, letermovir-selected mutant
Holding throughout (type): cell-based, human cytomegalovirus (HCMV)

For assay [1], the system named is HCMV AD169 mutant rAIC246-1 (UL56 L241P). Particulars: for EC50: Human betaherpesvirus 5, AD169. Here is the method: (§1) HCMV Cytopathic Effect Reduction Assay (CPE-RA)
(§2) CPE-RAs were performed basically as described elsewhere (HCMV replication assay). In brief, the addition of 2 μl test compound of 50, 5, 0.5, 0.05, 0.005, and 0.0005 mM DMSO stock solutions to 100 μl cell culture medium in duplicate was followed by serial 2-fold dilutions in 96-well microtiter plates. Each well was supplemented with 150 μl of either a suspension of 1×10^4 NHDF cells mixed with cell-free HCMV (multiplicity of infection (MOI), 0.03) or a suspension of 1×10^4 to 3×10^4 HCMV-infected and uninfected NHDF cells (MOI, 0.001 to 0.002). Non-infected and non-treated cells served as controls on each plate. Final compound concentrations ranged between 250 and 0.00005 μM. Plates were incubated for 6 to 7 days at 37° C. or until the virus control reached 100% CPE. A mixture containing 20% Giemsa stain (Merck) and 5% formalin solution (Merck) was added to the wells for fixation and staining. After extensive washing, plates were dried at 56° C. followed by visual evaluation using an overhead microscope (plaque magnifier; Tecnorama Zürich). Each assay was performed at least in triplicate, and standard deviations were calculated. The assay plate data were used to calculate the EC50 (CPE-RA), i.e., the concentration of drug that inhibits the CPE by 50% compared with an untreated virus-infected control.
(§3) Drug-resistant HCMV AD169 mutants were selected by the single-step selection method or by serial passage of the virus in the presence of increasing concentration of Letermovir. Briefly, 5×10^3 AD169-infected NHDF cells/well (MOI, 0.03 PFU/cell) were seeded into the wells of 30 96-well microtiter plates. The infection was allowed to proceed under the exposure of 50 nM Letermovir (˜10×EC50) until a CPE developed in one or more of the compound-treated wells (indicative of resistant virus breakthrough). Non-infected and non-treated cells served as controls on each plate. Mutant virus amplification was accomplished after cultures achieved maximum CPE by the passage of cell-free supernatant virus in the presence of 50 nM Letermovir. The resultant Letermovir-resistant progeny virus mutants were plaque purified three times by limiting dilutions in the presence of Letermovir. The stability of resistance was tested by serially passaging plaque-purified viruses without selective pressure (8 to 10 times). The resistant phenotype of the mutants was confirmed by CPE reduction assays.

The test system of assay [2] is HCMV AD169 mutant rAIC246-10 (UL56 V236M). The note with it: for EC50: Human betaherpesvirus 5, AD169, rAIC246-10 (UL56 V236M), CPE reduction assay, mean ± SD. Here is the method: as §1, §2, §3
For assay [3], the system named is HCMV AD169 mutant rAIC246-5 (UL56 R369M). Particulars: for EC50: Human betaherpesvirus 5, AD169, rAIC246-5 (UL56 R369M), CPE reduction assay, mean ± SD. Here is the method: as §1, §2, §3
Assay [4] deals with HCMV AD169 mutant rAIC246-6 (UL56 R369M). Particulars: for EC50: Human betaherpesvirus 5, AD169, rAIC246-6 (UL56 R369M), CPE reduction assay, mean ± SD. As for the experimental part: as §1, §2, §3
For assay [5], the system named is HCMV AD169 mutant rAIC246-7 (UL56 L241P). Particulars: for EC50: Human betaherpesvirus 5, AD169, rAIC246-7 (UL56 L241P), CPE reduction assay, mean ± SD. Here is the method: as §1, §2, §3
In assay [6] the test system is HCMV AD169 mutant rAIC246-8 (UL56 C325Y). Particulars: for EC50: Human betaherpesvirus 5, AD169, rAIC246-8 (UL56 C325Y), CPE reduction assay, mean ± SD. As for the experimental part: as §1, §2, §3
Assay [7] concerns HCMV AD169 mutant rAIC246-9 (UL56 R369G). Particulars: for EC50: Human betaherpesvirus 5, AD169, rAIC246-9 (UL56 R369G), CPE reduction assay, mean ± SD. As for the experimental part: as §1, §2, §3

For the compound `Nc1nc(O)c2ncn(COC(CO)CO)c2n1` [Ganciclovir], the concentration giving a half-maximal response (EC50) (commonly the concentration at which the effect is half-maximal) came to 1.2 ± 0.2 µM in assay [1]; 1.7 ± 0.3 µM in assay [2]; 5 ± 0.4 µM in assay [3]; 2.9 ± 0.9 µM in assay [4]; 2.2 ± 0.6 µM in assay [5]; 2.2 ± 1.2 µM in assay [6]. In addition, the EC50 in assay [7] was found to be 1.7 ± 0.2 µM.

For `COc1cccc(N2CCN(C3=Nc4c(F)cccc4[C@H](CC(=O)O)N3c3cc(C(F)(F)F)ccc3OC)CC2)c1` [Letermovir, (S)-{8-fluoro-2-[4-(3-methoxyphenyl)-1-piperazinyl]-3-[2-methoxy-5-(trifluoromethyl)phenyl]-3,4-dihydro-4-quinazolinyl}acetic acid], the EC50 in assay [1] was 1.24 ± 0.36 µM; in assay [2], 0.07 ± 0.02 µM; in assay [3], 0.11 ± 0.01 µM; in assay [4], 0.08 ± 0.02 µM; in assay [5] it was 0.92 ± 0.12 µM; in assay [6], 25 ± 5.53 µM. Also, the EC50 in assay [7] came out at 0.06 ± 0.04 µM. Further, the “Resistance index (RI) = letermovir-EC50 mutant virus/letermovir-EC50 wild-type virus” value in assay [1] (rAIC246-1 vs AD169) was 221; in assay [2] (rAIC246-10 vs AD169), 13; in assay [3] (rAIC246-5 vs AD169) it was 19; in assay [4] (rAIC246-6 vs AD169), 14; in assay [5] (rAIC246-7 vs AD169) it was 164; in assay [6] (rAIC246-8 vs AD169), 4428. Also, in assay [7] (rAIC246-9 vs AD169), the “Resistance index (RI) = letermovir-EC50 mutant virus/letermovir-EC50 wild-type virus” value is given as 11.
